Measured values as given in ChEMBL document CHEMBL1201862, “PubChem BioAssay data set” (2004).
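Briefly, cells in 96-well plates were exposed to five compound concentrations for 48 h, and endpoints were estimated by linear interpolation. At the GI50, growth is halved.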 Active and inactive are the calls of the source. Cut-off read from the data, not from the text of the source: active = GI50 up to about 1.1 µM and inactive = higher.

Experiments:
Assay in all cases: NCI anticancer screen, dose series, 48 h
SNB-19 = system: SNB-19
HCC 2998 = system: HCC 2998
UACC-257 = system: UACC-257
OVCAR-3 = system: OVCAR-3
NCI-H522 = system: NCI-H522
CCRF-CEM = system: CCRF-CEM
KM12 = system: KM12
SR = system: SR
786-0 = system: 786-0
HCT-15 = system: HCT-15
HCT-116 = system: HCT-116
UO-31 = system: UO-31
SF-539 = system: SF-539
SK-MEL-28 = system: SK-MEL-28
UACC-62 = system: UACC-62
BT-549 = system: BT-549
MCF7 = system: MCF7
T47D = system: T47D
MDA-MB-231 = system: MDA-MB-231

SMILES | GI50 (SNB-19) | GI50 (HCC 2998) | GI50 (UACC-257) | GI50 (OVCAR-3) | GI50 (NCI-H522) | GI50 (CCRF-CEM) | GI50 (KM12) | GI50 (SR) | GI50 (786-0) | GI50 (HCT-15) | GI50 (HCT-116) | GI50 (UO-31) | GI50 (SF-539) | GI50 (SK-MEL-28) | GI50 (UACC-62) | GI50 (BT-549) | GI50 (MCF7) | GI50 (T47D) | GI50 (MDA-MB-231)
CC12C3CC4C5CC(C(C53)[C@@H]1NCc1ccccc1)C42 (stereo partly specified) | > 100 µM (inactive) | 15.5 µM (inactive) | > 100 µM (inactive) | 54.3 µM (inactive) | 36.2 µM (inactive) | > 100 µM (inactive) | > 100 µM (inactive) | > 100 µM (inactive) | > 100 µM (inactive) | 78.9 µM | > 100 µM (inactive) | 89.7 µM (inactive) | > 100 µM (inactive) | > 100 µM (inactive) | > 100 µM (inactive) |  |  |  | 
Cc1ccc(O)c(C2=NNC(c3cccc(Br)c3)C2)c1 (stereo unspecified) | 23 µM (inactive) | 60.8 µM (inactive) | 48.9 µM (inactive) | 62.2 µM (inactive) | 28.5 µM (inactive) | 29.3 µM (inactive) | 63.4 µM (inactive) | 27.8 µM (inactive) | > 100 µM (inactive) | 11.5 µM | 40.4 µM (inactive) | 51.5 µM (inactive) | 74.1 µM (inactive) |  | 35.7 µM (inactive) | > 100 µM (inactive) | 33.8 µM (inactive) | 35.6 µM (inactive) | 
O=C(C1OC1c1ccc(Br)cc1O)C12CC3CC(CC(C3)C1)C2 (stereo unspecified) | 34.8 µM (inactive) | 21.4 µM (inactive) | 29 µM (inactive) | 31.5 µM (inactive) | 18.8 µM (inactive) | 23.5 µM (inactive) | 19.5 µM (inactive) |  | 17.6 µM (inactive) | 19.4 µM | 14.9 µM (inactive) | 13.2 µM (inactive) | 95.1 µM (inactive) | 19.4 µM (inactive) | 15.5 µM (inactive) |  | 22.3 µM (inactive) | 40.8 µM (inactive) | 18.1 µM (inactive)
CCOC(=O)CCC1(CCC(=O)OCC)CCCCCCCCC(CCC(=O)OCC)(CCC(=O)OCC)C(=O)C1=O | > 100 µM (inactive) | > 100 µM (inactive) | > 100 µM (inactive) | > 100 µM (inactive) | 35.5 µM (inactive) |  | > 100 µM (inactive) | > 100 µM (inactive) | > 100 µM (inactive) | > 100 µM | > 100 µM (inactive) |  | > 100 µM (inactive) | > 100 µM (inactive) | > 100 µM (inactive) |  | > 100 µM (inactive) | 79.1 µM (inactive) | 
COc1cccc(/N=C/c2cc3cc(Br)ccc3nc2Cl)c1 | > 50 µM (inactive) | 15 µM (inactive) | 44.5 µM (inactive) | 34.4 µM (inactive) | 8.43 µM (inactive) | 4.78 µM (inactive) | 9.75 µM (inactive) | 1.85 µM (inactive) | 2.91 µM (inactive) | 35.3 µM | 11.2 µM (inactive) | 12.5 µM (inactive) | 13.1 µM (inactive) | > 50 µM (inactive) |  | 47 µM (inactive) |  | 10.5 µM (inactive) | 
CN(C)CCCNC(=O)CCNC(=O)c1cc(NC(=O)c2cc(NC(=O)c3cc(NC(=O)CCCNC(=O)c4cc(NC(=O)c5cc(NC(=O)c6nccn6C)cn5C)cn4C)cn3C)cn2C)cn1C | > 100 µM (inactive) | > 100 µM (inactive) | > 100 µM (inactive) | > 100 µM (inactive) | > 100 µM (inactive) | > 100 µM (inactive) | > 100 µM (inactive) |  | > 100 µM (inactive) | > 100 µM | > 100 µM (inactive) | > 100 µM (inactive) | > 100 µM (inactive) | > 100 µM (inactive) |  |  | > 100 µM (inactive) |  | > 100 µM (inactive)
COC1=NN2C(OC)(c3ccccc3)c3c(-c4ccccc4)sc(-c4ccccc4)c3C2(c2ccccc2)S1 (stereo unspecified) | > 100 µM (inactive) | > 100 µM (inactive) | > 100 µM (inactive) | > 10 µM (inactive) | > 100 µM (inactive) | > 100 µM (inactive) | > 100 µM (inactive) | > 100 µM (inactive) | > 100 µM (inactive) | > 100 µM | > 100 µM (inactive) | > 100 µM (inactive) | > 100 µM (inactive) | > 100 µM (inactive) | > 100 µM (inactive) |  |  |  | 
CC(C)=C[C@@H]1C[C@H](n2cc(C)c(=O)[nH]c2=O)ON1CCO | > 100 µM (inactive) |  | > 100 µM (inactive) | > 100 µM (inactive) | > 100 µM (inactive) | > 100 µM (inactive) | > 100 µM (inactive) | > 100 µM (inactive) | > 100 µM (inactive) | > 100 µM | > 100 µM (inactive) | > 100 µM (inactive) | > 100 µM (inactive) | > 100 µM (inactive) | > 100 µM (inactive) |  | > 100 µM (inactive) | > 100 µM (inactive) | > 100 µM (inactive)
O=C(c1ccc(Br)cc1)n1c2ccc(Br)cc2c2nc3ccccc3nc21 | > 100 µM (inactive) | > 100 µM (inactive) | > 100 µM (inactive) | > 100 µM (inactive) | > 100 µM (inactive) | > 100 µM (inactive) | > 100 µM (inactive) | 83.2 µM (inactive) | > 100 µM (inactive) | > 100 µM | > 100 µM (inactive) | > 100 µM (inactive) | > 100 µM (inactive) | > 100 µM (inactive) | > 100 µM (inactive) | > 100 µM (inactive) | > 100 µM (inactive) | > 100 µM (inactive) | 
CN1CCC(OC(=O)Oc2ccccc2)(c2ccccc2)CC1 | 25.4 µM (inactive) | 19.6 µM (inactive) | 19.7 µM (inactive) | 61.5 µM (inactive) | 24 µM (inactive) | 21.8 µM (inactive) | 17.9 µM (inactive) | 15.9 µM (inactive) | > 100 µM (inactive) | 16.7 µM | 13 µM (inactive) | 19.6 µM (inactive) | 13.6 µM (inactive) | 20.6 µM (inactive) | 21.5 µM (inactive) |  | 20 µM (inactive) | 26.6 µM (inactive) | 12.9 µM (inactive)
COC(=O)CCCc1ccc2c(c1)CC1(Cc3ccccc3C1)C2 |  | 70.1 µM (inactive) | 32.2 µM (inactive) | 62.2 µM (inactive) | 47.6 µM (inactive) | 29.6 µM (inactive) | > 100 µM (inactive) |  | > 100 µM (inactive) | 6.28 µM | 26 µM (inactive) | 86.1 µM (inactive) | > 100 µM (inactive) |  | > 100 µM (inactive) |  | 53.6 µM (inactive) | > 100 µM (inactive) | > 100 µM (inactive)
CCN(CC)CCC1(C(=O)OC)SCCc2ccc(C)cc21 (stereo unspecified) | > 100 µM (inactive) | > 100 µM (inactive) | > 100 µM (inactive) | > 100 µM (inactive) | > 100 µM (inactive) | > 100 µM (inactive) | > 100 µM (inactive) | > 100 µM (inactive) | > 100 µM (inactive) | > 100 µM | > 100 µM (inactive) | > 100 µM (inactive) | > 100 µM (inactive) | > 100 µM (inactive) | > 100 µM (inactive) | > 100 µM (inactive) | > 100 µM (inactive) | > 100 µM (inactive) | 
